Laboratory results from patent US9487502B2, “Chemical compounds” (Syngenta Limited, priority 2013, dated 2016).

Assays:
Type in all cases: in vivo
Abutilon theophrasti [1] = assay: Pre-emergence herbicidal activity, ABUTH; design: key: 5=total damage to plant; 0=no damage to plant; details: 1000 g/Ha, sprayed pre-emergence, evaluated after 13 days, scale 0-5
Procedure: (§1) Seeds of a variety of test species were sown in standard soil in pots. After cultivation for one day (pre-emergence) under controlled conditions in a glasshouse (at 24/16° C., day/night; 14 hours light; 65% humidity), the plants were sprayed with an aqueous spray solution derived from the formulation of the technical active ingredient in acetone/water (50:50) solution containing 0.5% Tween 20 (polyoxyethelyene sorbitan monolaurate, CAS RN 9005-64-5). The test plants were then grown in a glasshouse under controlled conditions (at 24/16° C., day/night; 14 hours light; 65% humidity) and watered twice daily. After 13 days, the test was evaluated (5=total damage to plant; 0=no damage to plant).

Amaranthus retroflexus [2] = assay: Pre-emergence herbicidal activity, AMARE; design: key: 5=total damage to plant; 0=no damage to plant; details: 1000 g/Ha, sprayed pre-emergence, evaluated after 13 days, scale 0-5
Procedure: as §1

Setaria faberi [3] = assay: Pre-emergence herbicidal activity, SETFA; design: key: 5=total damage to plant; 0=no damage to plant; details: 1000 g/Ha, sprayed pre-emergence, evaluated after 13 days, scale 0-5
Procedure: as §1

Echinochloa crus-galli [4] = assay: Pre-emergence herbicidal activity, ECHCG; design: key: 5=total damage to plant; 0=no damage to plant; details: 1000 g/Ha, sprayed pre-emergence, evaluated after 13 days, scale 0-5
Procedure: as §1

Alopecurus myosuroides [5] = assay: Pre-emergence herbicidal activity, ALOMY; details: 1000 g/Ha, sprayed pre-emergence, evaluated after 13 days, scale 0-5
Procedure: as §1

Zea mays [6] = assay: Pre-emergence herbicidal activity, ZEAMX; design: key: 5=total damage to plant; 0=no damage to plant; details: 1000 g/Ha, sprayed pre-emergence, evaluated after 13 days, scale 0-5
Procedure: as §1

Setaria faberi [7] = assay: Post-emergence herbicidal activity, SETFA; design: key: 5=total damage to plant; 0=no damage to plant; details: 1000 g/Ha, sprayed post-emergence (8 days cultivation), evaluated after 13 days, scale 0-5
Procedure: (§2) Seeds of a variety of test species were sown in standard soil in pots. After 8 days cultivation (post-emergence) under controlled conditions in a glasshouse (at 24/16° C., day/night; 14 hours light; 65% humidity), the plants were sprayed with an aqueous spray solution derived from the formulation of the technical active ingredient in acetone/water (50:50) solution containing 0.5% Tween 20 (polyoxyethelyene sorbitan monolaurate, CAS RN 9005-64-5). The test plants were then grown in a glasshouse under controlled conditions (at 24/16° C., day/night; 14 hours light; 65% humidity) and watered twice daily. After 13 days, the test was evaluated (5=total damage to plant; 0=no damage to plant).

Abutilon theophrasti [8] = assay: Post-emergence herbicidal activity, ABUTH; design: key: 5=total damage to plant; 0=no damage to plant; details: 1000 g/Ha, sprayed post-emergence (8 days cultivation), evaluated after 13 days, scale 0-5
Procedure: as §2

Amaranthus retroflexus [9] = assay: Post-emergence herbicidal activity, AMARE; design: key: 5=total damage to plant; 0=no damage to plant; details: 1000 g/Ha, sprayed post-emergence (8 days cultivation), evaluated after 13 days, scale 0-5
Procedure: as §2

Alopecurus myosuroides [10] = assay: Post-emergence herbicidal activity, ALOMY; design: key: 5=total damage to plant; 0=no damage to plant; details: 1000 g/Ha, sprayed post-emergence (8 days cultivation), evaluated after 13 days, scale 0-5
Procedure: as §2

Echinochloa crus-galli [11] = assay: Post-emergence herbicidal activity, ECHCG; design: key: 5=total damage to plant; 0=no damage to plant; details: 1000 g/Ha, sprayed post-emergence (8 days cultivation), evaluated after 13 days, scale 0-5
Procedure: as §2

Zea mays [12] = assay: Post-emergence herbicidal activity, ZEAMX; design: key: 5=total damage to plant; 0=no damage to plant; details: 1000 g/Ha, sprayed post-emergence (8 days cultivation), evaluated after 13 days, scale 0-5
Procedure: as §2

Compound | ABUTH damage score, application pre-emergence (Abutilon theophrasti [1]) | AMARE damage score, application pre-emergence (Amaranthus retroflexus [2]) | SETFA damage score, application pre-emergence (Setaria faberi [3]) | ECHCG damage score, application pre-emergence (Echinochloa crus-galli [4]) | ALOMY damage score, application pre-emergence (Alopecurus myosuroides [5]) | ZEAMX damage score, application pre-emergence (Zea mays [6]) | SETFA damage score, application post-emergence (Setaria faberi [7]) | ABUTH damage score, application post-emergence (Abutilon theophrasti [8]) | AMARE damage score, application post-emergence (Amaranthus retroflexus [9]) | ALOMY damage score, application post-emergence (Alopecurus myosuroides [10]) | ECHCG damage score, application post-emergence (Echinochloa crus-galli [11]) | ZEAMX damage score, application post-emergence (Zea mays [12])
CC1C(OC(=O)Nc2ccc([N+](=O)[O-])cc2)N(c2cc(C(C)(C)C)ncn2)C(=O)N1C (stereo not shown) [Example A36] | 5 | 5 | 4 | 4 | 4 | 3 | 5 | 5 | 5 | 5 | 5 | 5
C=CC1C(O)N(c2cc(C(C)(C)C)ncn2)C(=O)N1C (stereo not shown) [Example A29] | 5 | 5 | 4 | 4 | 4 | 1 | 5 | 5 | 5 | 4 | 4 | 1
CCO[C@@H]1C(O)N(c2cc(C(C)(C)F)ncn2)C(=O)N1C (stereo partly shown) [Example A38] | 5 | 5 | 5 | 5 |  | 2 | 5 | 5 | 5 |  | 5 | 5
CCC1C(O)N(c2cc(C(C)(C)C)ncn2)C(=O)N1C (stereo not shown) [Example A16] | 5 | 5 | 5 | 4 | 2 | 2 | 5 | 5 | 5 | 3 | 5 | 4
CON1CC(O)N(c2cc(C(C)(C)C)ncn2)C1=O (stereo not shown) [Example A23] | 5 | 5 | 2 | 4 | 1 | 1 | 5 | 5 | 4 | 1 | 4 | 4
C=CCC1C(O)N(c2cc(C(C)(C)C)ncn2)C(=O)N1C (single isomer, unassigned) [Example A33] | 5 | 5 | 4 | 5 | 4 | 3 | 5 | 5 | 5 | 5 | 5 | 3
CC1C(O)N(c2cc(C(C)(C)C)ncn2)C(=O)N1C (stereo not shown) [Example A3] | 5 | 5 | 5 | 4 | 4 | 2 | 5 | 5 | 5 | 5 | 5 | 3
CN1C(=O)N(c2cc(C(C)(C)C)ncn2)C(O)C1O (stereo not shown) [Example A4, 1-(6-tert-butylpyrimidin-4-yl)-4,5-dihydroxy-3-methyl-imidazolidin-2-one] | 4 | 5 | 2 | 2 | 2 | 0 | 4 | 4 | 5 | 4 | 2 | 1
CON1C(=O)N(c2cc(C(C)(C)C#N)ncn2)C(O)C1C (stereo not shown) [Example A25] | 5 | 5 | 5 | 5 | 4 | 4 | 5 | 5 | 5 | 5 | 5 | 5
CN1CC(O)N(c2cc(C(C)(C)CCl)ncn2)C1=O (stereo not shown) [Example A40] | 5 | 5 | 5 | 5 |  | 2 | 5 | 5 | 5 |  | 5 | 5
CON1C(=O)N(c2cc(C(C)(C)C)ncn2)C(O)C1O (stereo not shown) [Example A9] | 0 | 5 | 1 | 2 | 3 | 1 | 4 | 5 | 5 | 4 | 4 | 1
CN1C(=O)N(c2cc(C(C)(C)C)ncn2)C(O)C1C(F)(F)F (stereo not shown) [Example A31] | 2 | 2 | 4 | 3 | 3 | 0 | 5 | 5 | 1 | 4 | 3 | 1
CN1CC(O)N(c2cc(C(F)(F)Cl)ncn2)C1=O (stereo not shown) [Example A39] | 5 | 5 | 5 | 5 |  | 2 | 5 | 5 | 5 |  | 5 | 5
CON1C(=O)N(c2cc(C(C)(C)C)ncn2)C(O)C1C (stereo not shown) [Example A6, 1-(6-tert-butylpyrimidin-4-yl)-5-hydroxy-3-methoxy-4-methyl-imidazolidin-2-one] |  | 5 | 5 | 5 | 4 |  | 5 | 5 | 5 | 5 | 5 | 5
